Reference: US20250034116A1, “1,4-DIHETEROCYCLIC SUBSTITUTED AROMATIC RING OR AROMATIC HETEROCYCLIC COMPOUND AND USE THEREOF” (BeBetter Med Inc., priority 2022, published 2025)

Assays:
[1] = test system: CYP enzymes in rat liver microsomes (RLM); experiment: Inhibition of 20-HETE production in rat liver microsomes (RLM); assay type: biochemical
Summary of the method: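 Test compounds were dissolved in DMSO, diluted in acetonitrile/DMSO (3:1), and 2 μl was mixed with 100 μl potassium phosphate buffer containing rat liver microsomes in a 96-well plate. Duplicate 30 μl aliquots received 15 μl of 400 μM substrate, were preheated at 37° C. for 10 minutes, then started with 15 μl of 6 mM NADPH for 25 minutes. LC-MS/MS measured 20-HETE formation.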

[2] = molecular target: recombinant CYP4F2 (rCYP4F2) (Homo sapiens (Human), UniProt P78329); experiment: Inhibition of 20-HETE production by recombinant CYP4F2; assay type: biochemical; conditions: for inhibition at 0.1 µM: read-out: rCYP4F2 (% inh @ 100 nM)
recombinant CYP4F2 (rCYP4F2), sequence (P78329 5-520): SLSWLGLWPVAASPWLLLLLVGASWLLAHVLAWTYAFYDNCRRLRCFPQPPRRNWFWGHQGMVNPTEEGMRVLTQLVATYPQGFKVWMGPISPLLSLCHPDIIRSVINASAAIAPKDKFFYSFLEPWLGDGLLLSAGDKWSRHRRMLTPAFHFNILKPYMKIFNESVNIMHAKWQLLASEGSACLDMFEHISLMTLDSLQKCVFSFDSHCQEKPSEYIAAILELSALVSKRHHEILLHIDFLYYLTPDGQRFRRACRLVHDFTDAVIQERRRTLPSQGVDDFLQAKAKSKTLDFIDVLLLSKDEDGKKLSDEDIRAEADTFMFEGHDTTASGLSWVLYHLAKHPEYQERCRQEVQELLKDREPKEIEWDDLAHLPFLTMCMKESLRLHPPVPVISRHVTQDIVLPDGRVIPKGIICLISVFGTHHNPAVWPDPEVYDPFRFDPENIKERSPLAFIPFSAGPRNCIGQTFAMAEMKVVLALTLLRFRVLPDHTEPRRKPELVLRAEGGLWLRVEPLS
Method: (§1) Experimental principle: The inhibitory activity of 20-HETE production is evaluated by testing the inhibitory effects of the compound on human liver microsomes (HLM), rat liver microsomes (RLM), mouse liver microsomes (MLM), or […] CYP4 subtype enzymes (CYP4F2). This assay employs HLM, RLM, or MLM along with recombinant CYP4F2 (rCYP4F2) and recombinant CYP4A11 (rCYP4A11), which are […] CYP4 subtype enzymes, to detect the effects of the test compound at different concentrations on the metabolic rate of enzyme-specific substrates, to determine the inhibitory effects of the test compound on CYP enzymes in HLM, RLM, or MLM.
(§2) Experimental methods: Dissolve the test compound in DMSO, and subsequently dilute it with an acetonitrile and DMSO mixture (3:1). Add 2 μl of varying concentrations of the test compound and 100 μl of potassium phosphate buffer containing either liver microsomes or recombinant enzymes to a 96-well plate. After mixing well, transfer 30 μl to another well (in duplicate), add 15 μl of 400 μM substrate solution, and mix well again. Preheat at 37° C. for 10 minutes, and then add 15 μl of 6 mM NADPH and incubate at 37° C. for 25 minutes. After 25 minutes, add 160 μl of acetonitrile solution (containing 0.1 μg/ml internal standard) to stop the reaction. Mix well, centrifuge at 3500 g for 15 minutes, and then analyze the supernatant using LC-MS/MS.
(§3) Plot the compound concentration on the x-axis and the inhibition rate on the y-axis to draw the curve. Use GraphPad Prism 5 software to fit the curve and calculate the IC50. The formula is Y=Bottom+(Top−Bottom)/(1+10^((Log IC50−X)×HillSlope)). X represents the logarithmic concentration of the inhibitor, and Y represents the relative enzyme activity at a given inhibitor concentration (relative to the condition without the inhibitor).
(§4) Calculate the inhibition percentages at concentrations of 1000 nM, 500 nM, or 100 nM as well as the half-maximal inhibitory concentration (IC50) of the test compound from the above experiment.

[3] = Pharmacokinetic (PK) experiment, oral administration in rats; assay type: in vivo, Male SD rats; conditions: 20 mg/kg; for AUC(0-inf) / Cmax / Tmax / half-life / AUC(0-t): male, SD, rat, plasma; for AUC(0-t): read-out: AUC0-24
Method: Male SD rats, weighing 180-250 grams, were fasted overnight before testing. The test compound was dissolved in 30% sulfobutylether-β-cyclodextrin and administered orally at a dose of 20 mg/kg. Blood was collected from the tail vein at 15 minutes, 30 minutes, and 1, 2, 4, 6, 8, and 24 hours after administration. Approximately 0.3 ml of blood was collected at each time point, placed in a centrifuge tube containing K2-EDTA, and centrifuged (2000 g for 10 minutes at 4° C.) to take the plasma, which was then stored in an ultra-low temperature freezer at −70° C. or below. A 50 μL plasma sample was mixed with 135 μL of acetonitrile (containing 0.5 μg/mL internal standard) and vortexed for protein precipitation. After centrifugation, the supernatant was taken for LC-MS/MS analysis.

[4] = test system: CYP enzymes in human liver microsomes (HLM); experiment: Inhibition of 20-HETE production in human liver microsomes (HLM); assay type: biochemical
Summary of the method: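 LC-MS/MS read-out of 20-HETE formation, expressed as activity relative to no-inhibitor control and fitted to a Hill equation for IC50; percent inhibition also given at 1000, 500 or 100 nM. Enzyme sources: recombinant CYP4F2, recombinant CYP4A11, or human or mouse liver microsomes. Each is combined with compound and substrate (400 μM solution) and warmed 10 min at 37 °C, then incubated 25 min at 37 °C after adding NADPH (6 mM solution).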

[5] = test system: CYP enzymes in mouse liver microsomes (MLM); experiment: Inhibition of 20-HETE production in mouse liver microsomes (MLM); assay type: biochemical
Method: as §1, §2, §3, §4

[6] = molecular target: recombinant CYP4A11 (rCYP4A11) (Homo sapiens (Human), UniProt Q02928); experiment: Inhibition of 20-HETE production by recombinant CYP4A11; assay type: biochemical; conditions: for inhibition at 0.1 µM: read-out: rCYP4A11 (% inh @ 100 nM)
recombinant CYP4A11 (rCYP4A11), sequence (Q02928 5-519): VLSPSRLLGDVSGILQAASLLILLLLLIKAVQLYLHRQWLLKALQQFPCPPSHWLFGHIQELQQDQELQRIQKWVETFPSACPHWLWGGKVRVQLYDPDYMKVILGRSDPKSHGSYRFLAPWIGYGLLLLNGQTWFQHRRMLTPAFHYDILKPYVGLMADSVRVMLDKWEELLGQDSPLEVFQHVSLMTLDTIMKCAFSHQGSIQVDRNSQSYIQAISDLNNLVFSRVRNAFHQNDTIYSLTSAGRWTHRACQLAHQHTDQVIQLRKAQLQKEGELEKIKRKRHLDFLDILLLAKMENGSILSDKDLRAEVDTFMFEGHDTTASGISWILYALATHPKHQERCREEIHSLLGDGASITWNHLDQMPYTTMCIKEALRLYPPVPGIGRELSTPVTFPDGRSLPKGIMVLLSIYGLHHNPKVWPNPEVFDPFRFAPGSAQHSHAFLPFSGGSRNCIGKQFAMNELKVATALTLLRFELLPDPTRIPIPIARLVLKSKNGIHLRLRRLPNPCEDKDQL
Method: as §1, §2, §3, §4

Row | Structure (SMILES) | IC50 [1] [nM] | RLM (% inh @ 500 nM) [1] [%] | IC50 [2] [nM] | inhibition at 0.1 µM [2] [%] | absorption and blood exposure after oral administration (in words) [3] | AUC(0-inf) [3] [ng·h/mL] | Cmax [3] [ng/mL] | Tmax [3] [h] | half-life [3] [h] | AUC(0-t) [3] [ng·h/mL] | IC50 [4] [nM] | HLM (% inh @ 500 nM) [4] [%] | IC50 [5] [nM] | IC50 [6] [nM] | inhibition at 0.1 µM [6] [%]
1 | O=C1CCCN1CC1CCN(c2c(F)cc(-c3cn[nH]c3)cc2F)CC1 [Compound 5, 1-((1-(2,6-difluoro-4-(1H-pyrazol-4-yl)phenyl)piperidin-4-yl)methyl)pyrrolidin-2-one] | 44.2 | 66.71 | 24.9 | 71.1 | well absorbed and exhibit high blood exposure | 124000 | 9270 | 2.67 | 8.11 | 103000 | 28.1 | 81.03 | 946 | 39.6 | –
2 | O=C1CCCCN1CC1CCN(c2ccc(-c3cn[nH]c3)cc2)CC1 [Compound 25, 1-((1-(4-(1H-pyrazol-4-yl)phenyl)piperidin-4-yl)methyl)piperidin-2-one] | 159 | 61.49 | – | 56 | – | – | – | – | – | – | 29.3 | 80.65 | 766 | – | 30.6
3 | O=C1CCCCN1CC1CCN(c2ccc(-c3cn[nH]c3)c(F)c2F)CC1 [Compound 26, 1-((1-(2,3-difluoro-4-(1H-pyrazol-4-yl)phenyl)piperidin-4-yl)methyl)piperidin-2-one] | 124 | 63.62 | – | 78 | well absorbed and exhibit high blood exposure | 40500 | 7150 | 1.67 | 2.93 | 40300 | – | 89.67 | 1670 | – | 53.9
4 | O=C1CCCCN1CC1CCN(c2c(F)cc(-c3cn[nH]c3)cc2F)CC1 [Compound 27, 1-((1-(2,6-difluoro-4-(1H-pyrazol-4-yl)phenyl)piperidin-4-yl)methyl)piperidin-2-one] | 23.3 | – | – | 78.4 | – | – | – | – | – | – | 26 | 88.87 | 1150 | – | 52.3
5 | O=C(NCC1CCN(c2ccc(-c3cn[nH]c3)cc2)CC1)c1ccccc1 [Compound 47, N-((1-(4-(1H-pyrazol-4-yl)phenyl)piperidin-4-yl)methyl)benzamide] | – | 35.64 | – | 66 | – | – | – | – | – | – | 42.7 | – | – | – | 41.1
6 | O=C(C1CCN(c2ccc(-c3cn[nH]c3)cc2)CC1)N1CCCC1 [Compound 49, (1-(4-(1H-pyrazol-4-yl)phenyl)piperidin-4-yl)(pyrrolidin-1-yl) methanone] | 521 | 44.31 | – | 42.4 | – | – | – | – | – | – | – | 79.80 | – | – | 23.3
7 | O=C(NC1CCCCC1)C1CCN(c2ccc(-c3cn[nH]c3)cc2)CC1 [Compound 57, 1-(4-(1H-pyrazol-4-yl)phenyl)-N-cyclohexylpiperidine-4-carboxamide] | – | 49.97 | – | 61.7 | – | – | – | – | – | – | – | 81.76 | – | – | 8.98
8 | O=C(Nc1ccc2occc2c1)C1CCN(c2ccc(-c3cn[nH]c3)cc2)CC1 [Compound 62, 1-(4-(1H-pyrazol-4-yl)phenyl)-N-(benzofuran-5-yl)piperidine-4-carboxamide] | – | 50.28 | – | 79.2 | – | – | – | – | – | – | 19.6 | 85.05 | – | – | 25.8
9 | O=C(Nc1ccc2ccccc2c1)C1CCN(c2ccc(-c3cn[nH]c3)cc2)CC1 [Compound 64, 1-(4-(1H-pyrazol-4-yl)phenyl)-N-(naphthalen-2-yl)piperidine-4-carboxamide] | 86.4 | – | – | 73.8 | – | – | – | – | – | – | 20 | 81.86 | – | – | 40.6
10 | O=C(C1CCN(c2ccc(-c3cn[nH]c3)cc2)CC1)N1Cc2ccccc2C1 [Compound 66, (1-(4-(1H-pyrazol-4-yl)phenyl)piperidin-4-yl)(isoindolin-2-yl) methanone] | – | 64.35 | – | 70.5 | well absorbed and exhibit high blood exposure | 486000 | 26800 | 3.33 | 12.5 | 364000 | – | 69.53 | – | – | 9.25
11 | O=C(C1CCCC1)N1CCC(c2ccc(-c3cn[nH]c3)cc2)CC1 [Compound 70, (4-(4-(1H-pyrazol-4-yl)phenyl)piperidin-1-yl)(cyclopentyl) methanone] | 4.9 | – | – | 79.2 | well absorbed and exhibit high blood exposure | 69000 | 7320 | 3 | 2.57 | 68800 | 19.4 | 89.89 | 135 | – | 65.5
12 | O=C(N1CCCC1)N1CCN(c2ccc(-c3cn[nH]c3)c(F)c2F)CC1 [Compound 72, (4-(2,3-difluoro-4-(1H-pyrazol-4-yl)phenyl)piperazin-1-yl)(pyrrolidin-1-yl) methanone] | 5.36 | – | – | 70.1 | well absorbed and exhibit high blood exposure | 86000 | 7880 | 2.33 | 2.51 | 85800 | 19.1 | 89.73 | 1330 | – | 50.6
13 | O=C1CCCN1CC1CCN(c2ccc(-c3cn[nH]c3)cc2)C1 (stereo not shown) [Compound 74, 1-((1-(4-(1H-pyrazol-4-yl)phenyl)pyrrolidin-3-yl)methyl)pyrrolidin-2-one] | – | 47.19 | – | 52.8 | – | – | – | – | – | – | – | 72.44 | – | – | 17.5
14 | O=C1CCCN1Cc1ccc(C2CCN(c3cn[nH]c3)CC2)cc1 [Reference 83, reference compound] | 598 | 38.16 | – | 54.6 | – | 2640 | 562 | 1.5 | 3.53 | 2630 | 51.8 | 79.09 | > 10000 | – | 35.6
